Data: US11478461B2, “[1.1.1] bicyclo compounds as indoleamine 2,3-dioxygenase inhibitors” (Merck Sharp & Dohme Corp., priority 2018, dated 2022)

Biological target: IDO1 (Homo sapiens, UniProt P14902)
Experiment: IDO1 Cellular Assay in Hela Cells Stimulated with IFNγ
Format: cell-based
Conditions: IFNγ 100 ng/mL, 300 uM L-tryptophan, about 48 hours, fluorescence readout, read-out: IDO1 HELA Cell Assay, IC50
Outline: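 HeLa cells stimulated with 100 ng/mL IFNγ, supplemented with 300 uM L-tryptophan, incubated 48 h at 37° C with ten 3-fold compound dilutions. Unstimulated cells served as Max-E control. Kynurenine detected by fluorescence (ex 400/em 510 nm) after overnight methyl isonipecotate reaction; IC50 by four-parameter logistic fit.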

IDO1, sequence (P14902 whole entry): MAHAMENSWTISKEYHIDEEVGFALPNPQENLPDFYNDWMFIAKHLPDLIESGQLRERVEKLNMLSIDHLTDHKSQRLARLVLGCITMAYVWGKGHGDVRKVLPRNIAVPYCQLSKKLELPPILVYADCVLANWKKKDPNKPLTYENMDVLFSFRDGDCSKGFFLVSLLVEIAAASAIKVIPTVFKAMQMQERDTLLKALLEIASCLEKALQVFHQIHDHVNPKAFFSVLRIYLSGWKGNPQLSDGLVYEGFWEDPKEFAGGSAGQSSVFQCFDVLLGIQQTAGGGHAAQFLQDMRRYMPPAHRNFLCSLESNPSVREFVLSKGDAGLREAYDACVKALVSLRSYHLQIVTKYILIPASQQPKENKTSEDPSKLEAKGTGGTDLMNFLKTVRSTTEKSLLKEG

| SMILES | IC50 [nM] |
| --- | --- |
| C[C@H](C(=O)Nc1ccc(F)cc1)C12CC(NC(=O)Nc3ccc(F)cc3)(C1)C2 [Example 85, (S)-N-(4-fluorophenyl)-2-(3-(3-(4-fluorophenyl)ureido)bicyclo [1.1.1]pentan-1-yl)propanamide] | 73.2 |
| CC(C(=O)Nc1ccc(F)cc1)C12CC(NC(=O)c3cccnc3)(C1)C2 (stereo not shown) [Example 142, N-[3-[2-(4-fluoroanilino)-1-methyl-2-oxo-ethyl]-1-bicyclo[1.1.1]pentanyl]pyridin-1-ium-3-carboxamide] | 418 |
| CCc1cc(C(=O)NC23CC(C(C)C(=O)Nc4ccc(F)cc4)(C2)C3)no1 (stereo not shown) [Example 110, 5-ethyl-N-[3-[2-(4-fluoroanilino)-1-methyl-2-oxo-ethyl]-1-bicyclo[1.1.1]pentanyl]isoxazole-3-carboxamide] | 17.7 |
| Cc1cc(C(=O)NC23CC([C@H](C)C(=O)Nc4ccc(F)cc4)(C2)C3)ccc1Cl [Example 50, 4-chloro-N-[3-[(1S)-2-(4-fluoroanilino)-1-methyl-2-oxo-ethyl]-1-bicyclo[1.1.l]pentanyl]-3-methyl-benzamide] | 3.29 |
| Cc1cccc(C(=O)NC23CC(C(C)C(=O)Nc4ccc(F)cc4)(C2)C3)n1 (stereo not shown) [Example 119, N-[3-[2-(4-fluoroanilino)-1-methyl-2-oxo-ethyl]-1-bicyclo[1.1.1]pentanyl]-6-methyl-pyridin-1-ium-2-carboxamide] | 113 |
| C[C@@H](C(=O)Nc1ccc(C(F)(F)F)cc1)C12CC(NC(=O)c3ccc(Cl)c(Cl)c3)(C1)C2 [Example 92, (R)-3,4-dichloro-N-(3-(1-oxo-1-((4-(trifluoromethyl)phenyl)amino)propan-2-yl)bicyclo[1.1.1]pentan-1-yl)benzamide] | 6.43 |
| O=C(NC12CC(C3(NC(=O)c4ccc(F)cc4)CC3)(C1)C2)OCc1ccccc1 [Example 23, Benzyl (3-(1-(4-fluorobenzamido)cyclopropyl)bicyclo[1.1.1]pentan-1-yl)carbamate] | 107 |
| C[C@H](C(=O)Nc1ccc(F)cc1)C12CC(NC(=O)Nc3ccc(F)c(Cl)c3)(C1)C2 [Example 83, (S)-2-(3-(3-(3-chloro-4-fluorophenyl)ureido)bicyclo [1.1.1]pentan-1-yl)-N-(4-fluorophenyl)propanamide] | 39 |
| CC(C)OC(=O)NC12CC([C@H](C)C(=O)Nc3ccc(F)cc3)(C1)C2 [Example 79, isopropyl (S)-(3-(1-((4-fluorophenyl)amino)-1-oxopropan-2-yl)bicyclo[1.1.1]pentan-1-yl)carbamate] | 20.4 |
| CC(C(=O)Nc1ccc(Cl)cc1)C12CC(NC(=O)OC3CC3)(C1)C2 (single isomer, unassigned) [Example 20, Cyclopropyl (3-(1-((4-chlorophenyl)amino)-1-oxopropan-2-yl)bicyclo [1.1.1]pentan-1-yl) carbamate] | 29.2 |
| Cc1ccc(C(=O)NC23CC([C@H](C)C(=O)Nc4ccc(F)cc4)(C2)C3)nc1C [Example 64, N-[3-[(1S)-2-(4-fluoroanilino)-1-methyl-2-oxo-ethyl]-1-bicyclo[1.1.1]pentanyl]-5,6-dimethyl-pyridin-1-ium-2-carboxamide] | 11.4 |
| C[C@H](C(=O)Nc1ccc(F)cc1)C12CC(NC(=O)c3ccc(Cl)nc3)(C1)C2 [Example 60, 6-chloro-N-[3-[(1S)-2-(4-fluoroanilino)-1-methyl-2-oxo-ethyl]-1-bicyclo[1.1.1]pentanyl]pyridin-1-ium-3-carboxamide] | 157 |
| O=C(NC12CC(C3(C(=O)Nc4ccc(F)c(F)c4)COC3)(C1)C2)c1cccc(Cl)c1 [Example 105, 3-(3-(3-Chlorobenzamido)bicyclo[1.1.1]pentan-1-yl)-N-(3,4-difluorophenyl)oxetane-3-carboxamide] | 35.8 |
| Cc1ncc(C(=O)NC23CC([C@H](C)C(=O)Nc4ccc(F)cc4)(C2)C3)cc1F [Example 65, 5-fluoro-N-[3-[(1S)-2-(4-fluoroanilino)-1-methyl-2-oxo-ethyl]-1-bicyclo[1.1.1]pentanyl]-6-methyl-pyridin-1-ium-3-carboxamide] | 28.1 |
| Cc1cc(C(=O)NC23CC([C@@H](C)C(=O)Nc4ccc(F)cc4)(C2)C3)ccc1Cl [Example 37, 4-chloro-N-[3-[(1R)-2-(4-fluoroanilino)-1-methyl-2-oxo-ethyl]-1-bicyclo[1.1.l]pentanyl]-3-methyl-benzamide] | 135 |
| Cc1ccnc(C(=O)NC23CC(C(C)C(=O)Nc4ccc(F)cc4)(C2)C3)c1 (stereo not shown) [Example 118, N-[3-[2-(4-fluoroanilino)-1-methyl-2-oxo-ethyl]-1-bicyclo[1.1.1]pentanyl]-4-methyl-pyridin-1-ium-2-carboxamide] | 89.4 |
| CC(C(=O)Nc1ccc(F)cc1)C12CC(NC(=O)Cc3ccccc3C(F)(F)F)(C1)C2 (stereo not shown) [Example 128, N-(4-fluorophenyl)-2-[3-[[2-[2-(trifluoromethyl)phenyl]acetyl]amino]-1-bicyclo[1.1.1]pentanyl]propanamide] | 194 |

| SMILES | IC50 [nM] |
| --- | --- |
| N#Cc1cccc(C(=O)NC23CC(C4(C(=O)Nc5ccc(F)cc5)CCC4)(C2)C3)c1 [Example 4, 3-cyano-N-(3-(1-((4-fluorophenyl)carbamoyl)cyclobutyl)bicyclo[1.1.1]pentan-1-yl)benzamide] | 47.8 |
| Cc1c(Cl)cccc1NC(=O)NC12CC([C@H](C)C(=O)Nc3ccc(F)cc3)(C1)C2 [Example 84, (S)-2-(3-(3-(3-chloro-2-methylphenyl)ureido)bicyclo [1.1.1]pentan-1-yl)-N-(4-fluorophenyl)propanamide] | 77.2 |
| C[C@@H](C(=O)Nc1cnc(Cl)c(F)c1)C12CC(NC(=O)c3ccc(Cl)c(Cl)c3)(C1)C2 [Example 89, (R)-3,4-dichloro-N-(3-(1-((6-chloro-5-yl)amino)-1-oxopropan-2-yl)bicyclo[1.1.1]pentan-1-yl)benzamide] | 65.4 |
| Cc1ccc(C(=O)NC23CC([C@H](C)C(=O)Nc4ccc(F)cc4)(C2)C3)cc1F [Example 58, 3-fluoro-N-[3-[(1S)-2-(4-fluoroanilino)-1-methyl-2-oxo-ethyl]-1-bicyclo[1.1.1]pentanyl]-4-methyl-benzamide] | 16.6 |
| CC(C)(C(=O)Nc1ccc(F)cc1)C12CC(NC(=O)c3ccc(Cl)c(Cl)c3)(C1)C2 [Example 101, 3,4-Dichloro-N-(3-(1-((4-fluorophenyl)amino)-2-methyl-1-oxopropan-2-yl)bicyclo[1.1.1]pentan-1-yl)benzamide] | 16.9 |
| C[C@H](C(=O)Nc1ccc(F)cc1)C12CC(NC(=O)c3cnc(Cl)c(Cl)c3)(C1)C2 [Example 63, 5,6-dichloro-N-[3-[(1S)-2-(4-fluoroanilino)-1-methyl-2-oxo-ethyl]-1-bicyclo[1.1.1]pentanyl]pyridin-1-ium-3-carboxamide] | 11.4 |
| Cc1nc(C(=O)NC23CC(C(C)C(=O)Nc4ccc(F)cc4)(C2)C3)cs1 (stereo not shown) [Example 123, N-[3-[2-(4-fluoroanilino)-1-methyl-2-oxo-ethyl]-1-bicyclo[1.1.1]pentanyl]-2-methyl-thiazole-4-carboxamide] | 147 |
| C[C@H](C(=O)Nc1ccc(F)cc1)C12CC(NC(=O)c3ccc(C(F)(F)F)nc3)(C1)C2 [Example 146, (S)-N-(3-(1-((4-fluorophenyl)amino)-1-oxopropan-2-yl)bicyclo[1.1.1]pentan-1-yl)-6-(trifluoromethyl)nicotinamide] | 218 |
| C[C@H](C(=O)Nc1ccc(F)cc1)C12CC(NC(=O)c3ccc4cccnc4c3)(C1)C2 [Example 147, (S)-N-(3-(1-((4-fluorophenyl)amino)-1-oxopropan-2-yl)bicyclo[1.1.1]pentan-1-yl)quinoline-7-carboxamide] | 176 |
| Cc1cc(C(=O)NC23CC([C@H](C)C(=O)Nc4ccc(F)cc4)(C2)C3)ccc1C#N [Example 151, (S)-4-cyano-N-(3-(1-((4-fluorophenyl)amino)-1-oxopropan-2-yl)bicyclo[1.1.1]pentan-1-yl)-3-methylbenzamide] | 55.6 |
| CC(C(=O)Nc1ccc(F)cc1)C12CC(NC(=O)c3cc4ccccn4c3)(C1)C2 (stereo not shown) [Example 116, N-[3-[2-(4-fluoroanilino)-1-methyl-2-oxo-ethyl]-1-bicyclo[1.1.1]pentanyl]indolizine-2-carboxamide] | 69.2 |
| O=C(NC12CC(C3(C(=O)Nc4ccc(F)cc4)COC3)(C1)C2)c1cccc(Cl)c1 [Example 104, 3-(3-(3-Chlorobenzamido)bicyclo[1.1.1]pentan-1-yl)-N-(4-fluorophenyl)oxetane-3-carboxamide] | 20.7 |
| C[C@H](C(=O)Nc1ccc(F)cc1)C12CC(NC(=O)c3ccc(F)c(Cl)c3)(C1)C2 [Example 48, 3-chloro-4-fluoro-N-[3-[(1S)-2-(4-fluoroanilino)-1-methyl-2-oxo-ethyl]-1-bicyclo[1.1.1]pentanyl]benzamide] | 1.72 |
| C[C@H](C(=O)Nc1ccc(F)cc1)C12CC(NC(=O)Nc3cccc(Cl)c3)(C1)C2 [Example 81, (S)-2-(3-(3-(3-chlorophenyl)ureido)bicyclo [1.1.1]pentan-1-yl)-N-(4-fluorophenyl)propanamide] | 15.4 |
| C[C@H](C(=O)Nc1ccc(C(F)(F)F)cc1)C12CC(NC(=O)c3ccc(Cl)c(Cl)c3)(C1)C2 [Example 98, (S)-3,4-dichloro-N-(3-(1-oxo-1-((4-(trifluoromethyl)phenyl)amino)propan-2-yl)bicyclo[1.1.1]pentan-1-yl)benzamide] | 23.2 |
| CCc1ccnc(C(=O)NC23CC(C(C)C(=O)Nc4ccc(F)cc4)(C2)C3)c1 (stereo not shown) [Example 117, 4-ethyl-N-[3-[2-(4-fluoroanilino)-1-methyl-2-oxo-ethyl]-1-bicyclo[1.1.1]pentanyl]pyridin-1-ium-2-carboxamide] | 73.5 |
| C[C@H](C(=O)Nc1ccc(F)cc1)C12CC(NC(=O)c3cccc(C(F)(F)F)c3)(C1)C2 [Example 62, N-[3-[(1S)-2-(4-fluoroanilino)-1-methyl-2-oxo-ethyl]-1-bicyclo[1.1.1]pentanyl]-3-(trifluoromethyl)benzamide] | 30.9 |
